ChEMBL document CHEMBL1201862, “PubChem BioAssay data set” (2004)
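Where inhibition never reached the appropriate level, the endpoint shown equals the highest concentration tested. Otherwise, values were interpolated linearly from a five-concentration, 48-hour dose response in 96-well plates. At the GI50, growth is halved.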 Active and inactive are the calls of the source. No stated cut-off is given here; in the data, active = GI50 up to about 1.1 µM and inactive = higher.

Key:
Experiment in all cases: NCI anticancer screen, dose series, 48 h
ACHN = tested on: ACHN
CAKI-1 = tested on: CAKI-1
EKVX = tested on: EKVX
HCT-116 = tested on: HCT-116
Hs-578T = tested on: Hs-578T
IGROV-1 = tested on: IGROV-1
MCF7 = tested on: MCF7
NCI-H226 = tested on: NCI-H226
NCI-H522 = tested on: NCI-H522
PC-3 = tested on: PC-3
RPMI-8226 = tested on: RPMI-8226
SF-268 = tested on: SF-268
SK-OV-3 = tested on: SK-OV-3
SNB-75 = tested on: SNB-75
U-251 = tested on: U-251
UO-31 = tested on: UO-31
A549 = tested on: A549
HCC 2998 = tested on: HCC 2998

Measured: GI50

CO[C@@H]1[C@H](O)CC[C@]2(CO2)[C@H]1[C@@]1(C)O[C@@H]1CC=C(C)C
inactive: ACHN 155 µM | CAKI-1 > 200 µM | EKVX 165 µM | HCT-116 84.3 µM | Hs-578T > 200 µM | IGROV-1 104 µM | MCF7 > 200 µM | NCI-H226 > 200 µM | NCI-H522 > 200 µM | PC-3 > 200 µM | RPMI-8226 185 µM | SF-268 > 200 µM | SK-OV-3 > 200 µM | SNB-75 > 200 µM | U-251 2.29 µM | UO-31 83.2 µM

c1cc2c3ccsc3c3sccc3c2s1
inactive: A549 > 100 µM | ACHN > 100 µM | CAKI-1 > 100 µM | EKVX > 100 µM | HCC 2998 36.4 µM | HCT-116 > 100 µM | Hs-578T 11.9 µM | IGROV-1 16.3 µM | MCF7 26.9 µM | NCI-H226 10 µM | PC-3 > 100 µM | RPMI-8226 > 100 µM | SF-268 > 100 µM | SK-OV-3 > 100 µM | SNB-75 23.1 µM | U-251 > 100 µM | UO-31 > 100 µM

Cc1nnc2n(c1=O)CCCN2C
inactive: A549 > 100 µM | ACHN > 100 µM | EKVX > 100 µM | HCC 2998 > 100 µM | HCT-116 > 100 µM | Hs-578T > 100 µM | IGROV-1 > 100 µM | MCF7 > 100 µM | NCI-H226 > 100 µM | PC-3 > 100 µM | RPMI-8226 > 100 µM | SF-268 > 100 µM | SK-OV-3 > 100 µM | SNB-75 > 100 µM | U-251 > 100 µM | UO-31 > 100 µM

COc1cc(C(=O)OCCn2[nH]c(-c3ccc(Cl)cc3)nc2=S)cc(OC)c1OC
inactive: A549 98.6 µM | ACHN > 100 µM | CAKI-1 37.7 µM | EKVX 91.6 µM | HCC 2998 56.4 µM | HCT-116 > 100 µM | Hs-578T 47.8 µM | MCF7 > 100 µM | NCI-H226 58.7 µM | NCI-H522 27.7 µM | PC-3 > 100 µM | SF-268 34.3 µM | SK-OV-3 > 100 µM | U-251 83.8 µM | UO-31 1.3 µM

CC(C)C(C)C(O)C(O)C(C)C1CCC2C3COC(=O)C4CC(O)C(O)CC4(C)C3CCC12C (stereo not given)
inactive: A549 48.9 µM | ACHN 25.4 µM | CAKI-1 11.7 µM | EKVX 43.7 µM | HCC 2998 > 100 µM | HCT-116 > 100 µM | Hs-578T 78.7 µM | IGROV-1 > 100 µM | MCF7 56.4 µM | NCI-H226 23.2 µM | NCI-H522 55.2 µM | PC-3 46.9 µM | SF-268 79.3 µM | SK-OV-3 > 100 µM | U-251 62.5 µM | UO-31 58.1 µM

O=C1OS2(OC(=O)c3cccc4cccc2c34)c2ccccc21 (stereo not given)
inactive: A549 > 100 µM | ACHN > 100 µM | CAKI-1 > 100 µM | EKVX > 100 µM | HCT-116 > 100 µM | Hs-578T > 100 µM | IGROV-1 > 100 µM | MCF7 > 100 µM | NCI-H226 > 100 µM | NCI-H522 > 100 µM | PC-3 > 100 µM | RPMI-8226 > 100 µM | SF-268 > 100 µM | U-251 > 100 µM | UO-31 > 100 µM

Nc1ccc2c(O)cc(O)nc2n1
inactive: A549 > 100 µM | ACHN > 100 µM | CAKI-1 > 100 µM | EKVX > 100 µM | HCT-116 > 100 µM | Hs-578T > 100 µM | IGROV-1 > 100 µM | MCF7 > 100 µM | NCI-H226 > 100 µM | NCI-H522 > 100 µM | PC-3 > 100 µM | RPMI-8226 > 100 µM | SF-268 > 100 µM | SK-OV-3 > 100 µM | SNB-75 > 100 µM | U-251 > 100 µM | UO-31 > 100 µM

O=C(O)C1CCCN1Cc1cc2ccccc2c2ccccc12 (stereo not given)
inactive: A549 > 100 µM | ACHN > 100 µM | CAKI-1 > 100 µM | EKVX > 100 µM | HCT-116 > 100 µM | Hs-578T > 100 µM | IGROV-1 > 100 µM | MCF7 > 100 µM | NCI-H226 > 100 µM | NCI-H522 > 100 µM | PC-3 > 100 µM | RPMI-8226 > 100 µM | SF-268 > 100 µM | SK-OV-3 > 100 µM | SNB-75 > 100 µM | U-251 > 100 µM | UO-31 > 100 µM

Oc1ccc2c(c1)OCC1c3ccccc3OC21 (stereo not given)
inactive: ACHN 39.8 µM | CAKI-1 46.3 µM | EKVX 27.9 µM | HCC 2998 27.8 µM | HCT-116 91.2 µM | Hs-578T 47.5 µM | IGROV-1 51.9 µM | MCF7 86.5 µM | NCI-H226 > 100 µM | PC-3 56.8 µM | RPMI-8226 45.7 µM | SF-268 25.4 µM | SK-OV-3 > 100 µM | SNB-75 45.2 µM | U-251 42.6 µM | UO-31 52.8 µM
